Literature values, collected in patent publication US20060069157A1, “Method of ameliorating or abrogating the effects of a neurodegenerative disorder, such as Huntington's disease, by sodium butyrate chemotherapy” (U.S. DEPARTMENT OF VETERANS AFFAIRS, priority 2004, published 2006).

How the values were obtained:
transgenic HD mice = settings: cyclodextrin as a carrier; transgenic HD mice (Hockly et al., 2003); cited from earlier work
Drosophila model of HD = Drosophila model of HD (Steffan 2001); cited from earlier work

For O=C(CCCCCCC(=O)Nc1ccccc1)NO [SAHA, suberoylanilide hydroxamic acid], the histone levels (transgenic HD mice) is given as “increase histone levels”, the motor performance (transgenic HD mice) is given as “improve motor performance” and the “photoreceptor neuron degeneration and lethality” value (Drosophila model of HD) is given as “slow photoreceptor neuron degeneration and ameliorate lethality”.
